We go through 1 substance from patent US10071133B2, “Method for destroying exosomes, kit for destroying exosomes, and method for isolating exosomes derived from normal cells” (priority 2015, dated 2018).

Common to all, as to type: biochemical
For assay [1], the system named is exosome fraction A prepared from the cell line MM231-luc-D3H2LN derived from human breast cancer cells. Put plainly: Destruction of exosomes in PBS, number of exosomes by nanoparticle analyzer (NanoSight LM10). As to conditions: 100 μM peptide, 1.36×10^10 particles/mL exosomes in PBS, 25° C., 24 hours; without peptide 1.36×10^10. The source says:
Storage samples were lightly suspended with a vortex mixer (vibration mixer) before use.

Assay [2] relates to exosome derived from human prostate cancer cells (PC3ML). Nature of the assay: Extraction of microRNA (miR-21) from exosome derived from prostate cancer cells, real-time PCR. As to conditions: 100 μM peptide, 1×10^11 particles/mL PC3ML exosomes, 0.4 U/μL RNase inhibitor, 37° C., 24 hours; without peptide 3×10^−14M. The method, then:
A cell suspension of cell line PC3ML derived from human prostate cancer cells (provided by the National Cancer Center Research Institute) was seeded in a dish containing RPMI 1640 medium (manufactured by Thermo Fisher Scientific Inc.) containing 10% fetal bovine serum. Subsequently, the cell line was grown at 37° C. under the condition that CO2 concentration was set to 5 volume % using a CO2 incubator, and then the medium was replaced with Advanced RPMI 1640 medium (manufactured by Thermo Fisher Scientific Inc.), followed by culturing for 48 hours, and the culture solution containing exosomes was obtained. This culture solution was centrifuged at 2,000 G for 10 minutes to remove the precipitate, followed by centrifugation at 110,000 G for 70 minutes to precipitate the exosomes, and therefore an exosome fraction was recovered. The recovered exosome fraction was suspended in a phosphate buffered saline (PBS) and then stored at 4° C. Storage samples were lightly suspended with a vortex mixer (vibration mixer) before use. […]
The reverse transcription PCR solution obtained by the above described method was processed and by comparing the number of cycles on a calibration curve of microRNA using Taqman Assay primer (manufactured by Thermo Fisher Scientific Inc., Taqman microRNA Assays, Taqman Assay primer, and hsa-mir-21 or hsa-mir-16) and Real-Time PCR Master Mixes (manufactured by Thermo Fisher Scientific Inc., TaqMan Universal PCR Master Mix II, w/UNG) with StepOnePlus Real-Time PCR System, MiR-21 or miR-16 was quantified. […]
The amount of microRNA (miR-21) contained in the recovered eluate was quantified by the above described real-time PCR method. […] In addition, the destructive activity of the antimicrobial peptide used was evaluated on the basis of the following criteria based on the quantitative result of the concentration of microRNA (miR-21) performed by the real-time PCR method. […]
(In general: Quantitative PCR measures a nucleic acid by following its amplification.)

In assay [3] the test system is exosome fraction B derived from human breast cancer cells versus exosome fraction derived from human mammary gland cells (MCF-10A, normal cells). Nature of the assay: Selectivity: miR-16 ratio, breast cancer exosomes versus mammary gland normal cell exosomes (Formula 1). The procedure:
A cell suspension of cell line MDA-MB-231-luc-D3H2LN derived from human breast cancer (=MM231-luc-D3H2LN, provided by the National Cancer Center Research Institute) was seeded in a dish containing RPMI 1640 medium (manufactured by Thermo Fisher Scientific Inc.) containing 10% fetal bovine serum. Subsequently, the cell line was grown at 37° C. under the condition that CO2 concentration was set to 5 volume % using a CO2 incubator, and then the medium was replaced with Advanced RPMI 1640 medium (manufactured by Thermo Fisher Scientific Inc.), followed by culturing for 48 hours, and therefore the culture solution containing exosomes was obtained. This culture solution was centrifuged at 2,000 G for 10 minutes to remove the precipitate, followed by centrifugation at 110,000 G for 70 minutes to precipitate the exosomes, and therefore an exosome fraction B was recovered. The recovered exosome fraction B was suspended in a phosphate buffered saline (PBS) and then stored at 4° C. Storage samples were lightly suspended with a vortex mixer (vibration mixer) before use.
A cell suspension of cell line MCF 10A derived from human mammary epithelial cells (provided by the National Cancer Center Research Institute) was seeded in a dish containing Mammary Epithelium Cell Basal Medium (manufactured by Lonza). Subsequently, the cell line was grown at 37° C. under the condition that CO2 concentration was set to 5 volume % using a CO2 incubator, and then the medium was replaced with a fresh medium, followed by culturing for 48 hours, and the culture solution containing exosomes was obtained. This culture solution was centrifuged at 2,000 G for 10 minutes to remove the precipitate, followed by centrifugation at 110,000 G for 70 minutes to precipitate the exosomes, and an exosome fraction was recovered. The recovered exosome fraction was suspended in a phosphate buffered saline (PBS) and then stored at 4° C. Storage samples were lightly suspended with a vortex mixer (vibration mixer) before use.
MicroRNA (miR-21 or miR-16) in the reaction solution was subjected to reverse transcription PCR using reverse transcription primers (manufactured by Thermo Fisher Scientific Inc., Taqman microRNA Assays, RT primers, and hsa-mir-21 or hsa-mir-16) and a reverse transcriptase (manufactured by Thermo Fisher Scientific Inc., Taqman microRNA RT kit).
The reverse transcription PCR solution obtained by the above described method was processed and by comparing the number of cycles on a calibration curve of microRNA using Taqman Assay primer (manufactured by Thermo Fisher Scientific Inc., Taqman microRNA Assays, Taqman Assay primer, and hsa-mir-21 or hsa-mir-16) and Real-Time PCR Master Mixes (manufactured by Thermo Fisher Scientific Inc., TaqMan Universal PCR Master Mix II, w/UNG) with StepOnePlus Real-Time PCR System, MiR-21 or miR-16 was quantified. The calibration curve of microRNA was created using synthetic miR-21 (manufactured by Sigma-Aldrich Co. LLC.) or synthetic miR-16 (manufactured by Sigma-Aldrich Co. LLC.).
10 μL of the exosome fraction was prepared such that PBS contains 1×10^11 particles/mL of the exosome fraction B derived from human breast cancer cells, various antimicrobial peptides shown in the following Table 4 adjusted to 100 μM, and 0.4 U/μL of RNase inhibitor (manufactured by Toyobo Co., Ltd.), followed by incubation by being left to stand at 37° C. for 24 hours.
Thereafter, the eluted MicroRNA (miR-16) was purified and recovered from the incubated solution by the same method as the above described method for extraction from the incubated solution of Examples 10 and 11 above and Comparative Examples 6 and 7 above. […]

Take Magainin 2: the “number of exosomes in the solution” value in assay [1] is on record as 1.89×10^9 particles/mL. The “Destructive activity (concentration of microRNA miR-21 in eluate)” value in assay [2] was “B (the concentration of microRNA is 5×10^−14M to 10×10^−14M)”. The mir-16 ratio in assay [3] (Formula 1, cancer/normal (MCF-10A), 100 μM peptide, 37° C., 24 hours) turned out to be 26. In addition, the Selectivity result in assay [3] (from miR-16 ratio versus Comparative Example 8, breast cancer vs MCF-10A exosomes) is “B (evaluated as “B” in a case where the calculated miR-16 value was higher than the miR-16 ratio of Comparative Example 8)”.
